Where two headings read alike, the source gives them in different places. One block for each compound: values may come before it.
Columns and labels:
[1] = biological target: T1, rat histamine H3 receptor (Rattus norvegicus, UniProt Q9QYN8); experiment: Rat H3 radioligand binding ([3H]-N-alpha-methylhistamine, SPA)
T1 construct: encoding the entire 445-amino-acid rat histamine H3 receptor; expressed in transfected cells; membrane preparation
In short: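 SPA-bead binding assay using [3H]-N-alpha-methylhistamine (approximately 1 nM final) with test compounds from 0.01 nM to 30 μM. Rat H3 receptor membranes came from stably transfected CHO-A3 cells; incubation ran 4 h at room temperature, in the dark, in Tris pH 7.4 buffer with MgCl2 and BSA. Clobenpropit (10 μM) gave non-specific binding.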

human H3 receptor = biological target: T2, human H3 receptor (Homo sapiens, UniProt Q9Y5N1); experiment: Human H3 radioligand binding ([3H]-N-alpha-methylhistamine, SPA)
T2 construct: expressed in transfected cells
In short: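 Compounds (0.01 nM-30 μM) competed with approximately 1 nM [3H]-N-alpha-methylhistamine for human H3 receptor in membranes of stably transfected CHO cells, 10 μg protein per well, in Tris-HCl pH 7.4/MgCl2/BSA buffer for 4 h at room temperature. Bound radioligand measured by scintillation proximity; 10 μM clobenpropit gave non-specific binding.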

[2] = Table C, rat H3 binding, read-out: Rat H3 Ki
[3] = Table C, human H3 binding, read-out: Human H3 Ki
[4] = Table A, rat H3 binding, read-out: Rat Ki
[5] = Table A, human H3 binding, read-out: Human Ki
[6] = Rat H3 binding, Table B, Examples 136-362, read-out: rat H3 binding Ki
[7] = Human H3 binding, Table B, Examples 136-362, read-out: hum H3 binding Ki
[8] = rat H3 binding, Table D, read-out: Rat H3 Ki
[9] = human H3 binding, Table D, read-out: Human H3 Ki

T1 sequence (Q9QYN8 whole entry): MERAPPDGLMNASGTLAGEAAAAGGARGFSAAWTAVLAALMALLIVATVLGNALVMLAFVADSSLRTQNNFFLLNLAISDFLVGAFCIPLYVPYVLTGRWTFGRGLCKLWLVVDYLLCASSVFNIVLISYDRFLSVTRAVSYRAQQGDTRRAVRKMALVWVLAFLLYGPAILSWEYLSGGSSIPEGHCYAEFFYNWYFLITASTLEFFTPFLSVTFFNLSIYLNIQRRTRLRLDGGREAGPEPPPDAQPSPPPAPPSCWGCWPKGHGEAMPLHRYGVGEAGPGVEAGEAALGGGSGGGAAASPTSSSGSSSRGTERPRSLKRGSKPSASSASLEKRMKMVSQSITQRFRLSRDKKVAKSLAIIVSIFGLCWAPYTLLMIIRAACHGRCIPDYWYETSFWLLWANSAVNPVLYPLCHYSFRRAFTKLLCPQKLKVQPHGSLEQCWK
T2 sequence (Q9Y5N1 whole entry): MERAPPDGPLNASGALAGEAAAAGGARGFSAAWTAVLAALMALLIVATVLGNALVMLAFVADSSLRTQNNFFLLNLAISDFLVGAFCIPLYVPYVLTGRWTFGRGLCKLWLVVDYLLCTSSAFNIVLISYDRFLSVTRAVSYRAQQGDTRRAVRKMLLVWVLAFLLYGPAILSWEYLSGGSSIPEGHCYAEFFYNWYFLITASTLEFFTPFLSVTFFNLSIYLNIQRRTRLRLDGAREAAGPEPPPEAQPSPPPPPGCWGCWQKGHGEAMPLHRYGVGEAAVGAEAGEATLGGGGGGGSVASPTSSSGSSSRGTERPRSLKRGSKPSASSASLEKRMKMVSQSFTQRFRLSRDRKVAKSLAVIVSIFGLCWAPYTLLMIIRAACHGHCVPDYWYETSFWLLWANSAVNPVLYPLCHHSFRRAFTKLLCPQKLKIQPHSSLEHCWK

Compound: CN(C)c1ncc(-c2ccc3c(c2)COC2(CCN(C4CCC4)CC2)O3)cn1 [Example 42]
Ki [1, 4]: < 0.2 µM
melting point: 204.8 to 205.8 °C
Ki (human H3 receptor; [5]): < 0.2 µM

Compound: c1cc2c(cc1OC1CCOCC1)CCC1(CCN(C3CCC3)CC1)O2 [Example 433]
Ki [1, 2]: < 0.2 µM
melting point: 252 to 254 °C
Ki (human H3 receptor; [3]): < 0.2 µM

Compound: COCCN(C)C(=O)c1c(F)cc(-c2ccc3c(c2)CCC2(CCN(C4CCC4)CC2)O3)cc1F [Example 360]
Ki [1, 6]: < 0.2 µM
melting point: 100 to 102 °C
Ki (human H3 receptor; [7]): < 0.2 µM

Compound: c1ccn2ncc(-c3ccc4c(c3)COC3(CCN(C5CCC5)CC3)O4)c2c1 [Example 757]
Ki [1, 8]: < 0.2 µM
melting point: 158 to 160 °C
Ki (human H3 receptor; [9]): < 0.2 µM

Compound: c1cnc(Oc2ccc3c(c2)CCC2(CCN(C4CCC4)CC2)O3)nc1 [Example 400]
Ki ([1]; Table C, rat H3 binding, given as numeric bound, read-out: Rat H3 Ki): > 0.3 µM
melting point: 258 to 260 °C
Ki (human H3 receptor; [3]): 0.2 to 1 µM

Compound: OCc1cn(-c2ccc3c(c2)COC2(CCN(C4CCC4)CC2)O3)c2ccccc12 [Example 84]
Ki [1, 4]: < 0.2 µM
melting point: 138 to 141 °C
Ki (human H3 receptor; [5]): < 0.2 µM

Compound: O=C(Nc1ccc2c(c1)COC1(CCN(C3CCC3)CC1)O2)c1ccc2[nH]ncc2c1 [Example 338]
Ki [1, 6]: < 0.2 µM
melting point: 249 to 250 °C
Ki (human H3 receptor; [7]): < 0.2 µM

Compound: O=C(C1CC1)N1CCC(COc2ccc3c(c2)CCC2(CCN(C4CCC4)CC2)O3)CC1 [Example 358]
Ki [1, 6]: < 0.2 µM
melting point: 128 to 130 °C
Ki (human H3 receptor; [7]): < 0.2 µM

Compound: Cc1nc2cccc(C(F)(F)F)c2c(=O)n1-c1ccc2c(c1)COC1(CCN(C3CCC3)CC1)O2 [Example 791]
Ki [1, 8]: < 0.2 µM
melting point: 221 to 222 °C
Ki (human H3 receptor; [9]): < 0.2 µM

Compound: CCOC(=O)C1CC=C(c2ccc3c(c2)CCC2(CCN(C4CCC4)CC2)O3)CC1 (stereo not drawn) [Example 455]
Ki ([1]; read-out: Rat H3 kI): < 0.2 µM
melting point: 137 to 139 °C
Ki (human H3 receptor; read-out: Human H3 Ki): < 0.2 µM

Compound: CC(C)S(=O)(=O)N1CCC(Oc2ccc3c(c2)CCC2(CCN(C4CCC4)CC2)O3)CC1 [Example 440]
Ki [1]: < 0.2 µM
melting point: 233 to 235 °C
Ki (human H3 receptor): < 0.2 µM

Second part, the compound after the results:

Ki [1, 2]: < 0.2 µM
melting point: 173 to 175 °C
Ki (human H3 receptor; [3]): < 0.2 µM
Compound: CC(C)C(=O)N1CCN(c2ccc3c(c2)CCC2(CCN(C4CCC4)CC2)O3)CC1 [Example 381]

Ki [1, 6]: < 0.2 µM
melting point: 72.6 to 74.9 °C
Ki (human H3 receptor; [7]): < 0.2 µM
Compound: O[C@H]1CCN(c2ccc3c(c2)COC2(CCN(C4CCC4)CC2)O3)C1 [Example 354]

Ki ([1]; read-out: Rat H3 kI): < 0.2 µM
melting point: 199 to 201 °C
Ki (human H3 receptor; read-out: Human H3 Ki): < 0.2 µM
Compound: COC1(c2ccc3c(c2)COC2(CCN(C4CCC4)CC2)O3)CCS(=O)(=O)CC1 [Example 542]

Ki [1, 2]: < 0.2 µM
melting point: 159 to 161 °C
Ki (human H3 receptor; [3]): < 0.2 µM
Compound: Cc1cccc(N2CCN(c3ccc4c(c3)CCC3(CCN(C5CCC5)CC3)O4)CC2)n1 [Example 366]

Ki [1, 8]: < 0.2 µM
melting point: 174 to 175 °C
Ki (human H3 receptor; [9]): < 0.2 µM
Compound: COc1ncc(-c2ccc3c(c2)COC2(CCN(C4CCC4)CC2)O3)cc1Cl [Example 629]

Ki ([1]; read-out: Rat H3 kI): < 0.2 µM
melting point: 187 to 189 °C
Ki (human H3 receptor; read-out: Human H3 Ki): < 0.2 µM
Compound: [O-][S+]1CCC(c2ccc3c(c2)COC2(CCN(C4CCC4)CC2)O3)CC1 (stereo not drawn) [Example 473]

Ki [1, 8]: < 0.2 µM
melting point: 120 to 123 °C
Ki (human H3 receptor; [9]): < 0.2 µM
Compound: Cn1cc(-c2ccc3c(c2)COC2(CCN(C4CCC4)CC2)O3)c(CO)cc1=O [Example 770]

Ki [1, 8]: < 0.2 µM
melting point: 155 to 157 °C
Ki (human H3 receptor; [9]): < 0.2 µM
Compound: O=C(NC[C@H]1CCCO1)c1ccc(-c2ccc3c(c2)COC2(CCN(C4CCC4)CC2)O3)cc1Cl [Example 579]

Ki ([1]; read-out: Rat H3 kI): < 0.2 µM
melting point: 110 to 112 °C
Ki (human H3 receptor; read-out: Human H3 Ki): < 0.2 µM
Compound: c1cc(-c2ccc3c(c2)CCC2(CCN(C4CCC4)CC2)O3)cs1 [Example 454]

Ki ([1]; read-out: Rat H3 kI): < 0.2 µM
melting point: 72 to 74 °C
Ki (human H3 receptor; read-out: Human H3 Ki): < 0.2 µM
Compound: CC(=O)OC1(c2ccc3c(c2)COC2(CCN(C4CCC4)CC2)O3)CC(C(=O)N2CCCC2)C1 (stereo not drawn) [Example 541]

Ki [1, 4]: < 0.2 µM
melting point: 159 to 161 °C
Ki (human H3 receptor; [5]): < 0.2 µM
Compound: c1ccc(Nc2ccc3c(c2)COC2(CCN(C4CCC4)CC2)O3)nc1 [Example 126]

Ki [1, 8]: < 0.2 µM
melting point: 62 to 64 °C
Ki (human H3 receptor; [9]): < 0.2 µM
Compound: O=C(NC[C@H]1CCCO1)c1ccc(-c2ccc3c(c2)CCC2(CCN(C4CCC4)CC2)O3)cc1Cl [Example 572]

Ki [1, 2]: < 0.2 µM
melting point: 240 to 242 °C
Ki (human H3 receptor; [3]): < 0.2 µM
Compound: CS(=O)(=O)N1CCN(c2ccc3c(c2)CCC2(CCN(C4CCC4)CC2)O3)CC1 [Example 375]

Ki [1, 6]: < 0.2 µM
melting point: 59 to 62 °C
Ki (human H3 receptor; [7]): < 0.2 µM
Compound: CNC(=O)N1CCN(c2ccc3c(c2)COC2(CCN(C4CCC4)CC2)O3)CC1 [Example 174]

Reference: patent US8513232B2, “Substituted spirocyclic piperidine derivatives as histamine-3 (H3) receptor ligands” (Cephalon, Inc., priority 2008, dated 2013)
